Measured values as given in ChEMBL document CHEMBL1201862, “PubChem BioAssay data set” (2004).
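Each compound was tested at five concentrations against cells in 96-well plates for 48 hours. Abbreviation: GI50, concentration required for 50% inhibition of growth.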 Activity calls are given as the source filed them. No stated cut-off is given here; in the data, active = GI50 up to about 1.1 µM and inactive = higher. *1 amine or outer side, *2 acyl side, *3 side chain or, on linkers, in order; H or OH if unused. Where a SMILES comes first, the peptide text is derived from it. [ ]: non-standard residue; d: D form. The star is where a group is joined. ξ: configuration not given here. X53 = CC(C)C[C@H](N[*:1])C1=N[C@H](C(=O)[*:2])CS1; Ile(3ξ) = CCC(C)[C@H](N)C(=O)O; Allyl(1,1-Me2) = C=CC(C)(C)*

Experiments:
Experiment in all cases: NCI anticancer screen, dose series, 48 h
[1] = tested on: ACHN
[2] = tested on: CCRF-CEM
[3] = tested on: EKVX
[4] = tested on: HOP-92
[5] = tested on: IGROV-1
[6] = tested on: KM12
[7] = tested on: LOX IMVI
[8] = tested on: MCF7
[9] = tested on: Malme-3M
[10] = tested on: NCI-H522
[11] = tested on: OVCAR-3
[12] = tested on: OVCAR-4
[13] = tested on: PC-3
[14] = tested on: SF-295
[15] = tested on: SK-MEL-2
[16] = tested on: SN12C
[17] = tested on: T47D
[18] = tested on: U-251
[19] = tested on: UACC-257
[20] = tested on: UO-31

Compound | GI50 [1] | GI50 [2] | GI50 [3] | GI50 [4] | GI50 [5] | GI50 [6] | GI50 [7] | GI50 [8] | GI50 [9] | GI50 [10] | GI50 [11] | GI50 [12] | GI50 [13] | GI50 [14] | GI50 [15] | GI50 [16] | GI50 [17] | GI50 [18] | GI50 [19] | GI50 [20]
Brc1ccc(-c2[nH]c3ccccc3c2/N=N\c2ccccc2)cc1 | 20.6 µM (inactive) | > 10 µM (inactive) | 16.6 µM (inactive) | 18.2 µM (inactive) | 12.1 µM (inactive) | 16.5 µM (inactive) | 30.8 µM (inactive) | 16.1 µM (inactive) | 19.1 µM (inactive) | 17.6 µM (inactive) | 12.3 µM (inactive) | 16.3 µM (inactive) | 16.1 µM (inactive) | 18.8 µM (inactive) | 20.5 µM (inactive) | 17.3 µM (inactive) | 16.7 µM (inactive) | 17.6 µM (inactive) | 19.3 µM (inactive) | 16 µM (inactive)
CN(C)C1C(O)=C(C(=O)NCN2CCCC2)C(=O)C2(O)C(O)=C3C(=O)c4c(O)cccc4C(C)(O)C3CC12 (stereo not given) | > 100 µM (inactive) | 59 µM (inactive) | > 100 µM (inactive) | > 100 µM (inactive) | > 100 µM (inactive) | > 100 µM (inactive) | > 100 µM (inactive) | 54.6 µM (inactive) | 25.6 µM (inactive) | > 100 µM (inactive) | > 100 µM (inactive) | > 100 µM (inactive) | > 100 µM (inactive) | > 100 µM (inactive) | > 100 µM (inactive) | > 100 µM (inactive) | > 100 µM (inactive) | 88.9 µM (inactive) | 69.2 µM (inactive) | > 100 µM (inactive)
Fc1ccc(C(OCCN2CC3CCC(C2)N3CCCc2ccccc2)c2ccc(F)cc2)cc1 | 10.6 µM (inactive) | 2.71 µM (inactive) | 4.06 µM (inactive) | 8.05 µM (inactive) | 8.71 µM (inactive) | 3.18 µM (inactive) | 3.89 µM (inactive) | 3.39 µM (inactive) | 3.32 µM (inactive) | 2.17 µM (inactive) | 5.92 µM (inactive) | 3.94 µM (inactive) | 2.72 µM (inactive) | 3.15 µM (inactive) | 2.55 µM (inactive) | 3.81 µM (inactive) | 1.95 µM (inactive) | 4.54 µM (inactive) | 3.33 µM (inactive) | 7.33 µM (inactive)
C=CCn1c(-c2ccc(/N=N/Nc3ccc(-c4n[nH]c(=S)n4CC=C)cc3)cc2)n[nH]c1=S | 2.21 µM (inactive) | 3.13 µM (inactive) | 5.55 µM (inactive) | 7.31 µM (inactive) | 3.34 µM (inactive) | 3.04 µM (inactive) | 3.4 µM (inactive) | 3.69 µM (inactive) | 3.57 µM (inactive) | 2.92 µM (inactive) | 2.52 µM (inactive) | 2.53 µM (inactive) | 3.17 µM (inactive) | 3.39 µM (inactive) | 2.67 µM (inactive) | 3.49 µM (inactive) | 1.11 µM (active) | 4.36 µM (inactive) | 3.33 µM (inactive) | 1.83 µM (inactive)
O=C1/C(=C/c2cccc(Br)c2)CSC/C1=C\c1cccc(Br)c1 | 2.87 µM (inactive) | 1.4 µM (inactive) | 5.68 µM (inactive) | 3.36 µM (inactive) | 3.04 µM (inactive) | 1.99 µM (inactive) | 1.57 µM (inactive) | 3.17 µM (inactive) | 1.92 µM (inactive) | 1.87 µM (inactive) | 3.38 µM (inactive) | 2.82 µM (inactive) | 2.5 µM (inactive) | 2.24 µM (inactive) | 3.08 µM (inactive) | 2.25 µM (inactive) | 4.89 µM (inactive) | 1.87 µM (inactive) | 2.38 µM (inactive) | 2.04 µM (inactive)
COC(=O)c1c2c(cc3c1CC1(Cc4ccccc4C1=O)C3)CCC2 (stereo not given) | 23.9 µM (inactive) | 28.2 µM (inactive) | 15.9 µM (inactive) | 23 µM (inactive) | 26.6 µM (inactive) | 25.5 µM (inactive) | 31 µM (inactive) | 43.8 µM (inactive) | 20.3 µM (inactive) | 49.8 µM (inactive) | 19.5 µM (inactive) | 36.1 µM (inactive) | 55.7 µM (inactive) | 55.6 µM (inactive) | 43.7 µM (inactive) | 25.7 µM (inactive) | 52.7 µM (inactive) | 56.5 µM (inactive) | 43.3 µM (inactive) | 13.9 µM (inactive)
C=CC(C)(C)OC[C@@H]1NC(=O)CNC(=O)[C@@H]2CCCN2C(=O)[C@H](C(C)CC)NC(=O)[C@@H]2CSC(=N2)[C@H](CC(C)C)NC1=O (stereo not given in full) (cyclo(GS(Allyl(1,1-Me2))[X53][Ile(3ξ)]P)) | 76.6 µM (inactive) | 30.9 µM (inactive) | 64.3 µM (inactive) | 37.3 µM (inactive) | 59 µM (inactive) | 55.2 µM (inactive) | > 100 µM (inactive) | 40.6 µM (inactive) | > 100 µM (inactive) | 32.9 µM (inactive) | 47.9 µM (inactive) | 22.3 µM (inactive) | 44.2 µM (inactive) | 45.2 µM (inactive) | > 100 µM (inactive) | > 100 µM (inactive) | 33.6 µM (inactive) | > 100 µM (inactive) | 38.5 µM (inactive) | 41.6 µM (inactive)
O=C1C=C(Nc2cccnc2)c2ccccc2C1=O | 7.73 µM (inactive) | 15.2 µM (inactive) | 12.2 µM (inactive) | 16.1 µM (inactive) | 7.73 µM (inactive) | 4.03 µM (inactive) | 2.61 µM (inactive) | 2.64 µM (inactive) | 2.34 µM (inactive) | 4.7 µM (inactive) | 2.72 µM (inactive) | 8.87 µM (inactive) | 8.85 µM (inactive) | 2.92 µM (inactive) | 7.23 µM (inactive) | 8.02 µM (inactive) | 21.4 µM (inactive) | 9.25 µM (inactive) | 1.9 µM (inactive) | 12 µM (inactive)
CCCCCCC(=O)OC[n+]1cccc(-c2c(COC(=O)NC(C)C)c(COC(=O)NC(C)C)c3n2CCC3)c1 | 21.4 µM (inactive) | 9.55 µM (inactive) | > 100 µM (inactive) | 24.9 µM (inactive) | > 41.8 µM (inactive) | > 100 µM (inactive) | 22 µM (inactive) | 27.6 µM (inactive) | 38.9 µM (inactive) | 22.6 µM (inactive) | 41.4 µM (inactive) | 33.7 µM (inactive) | > 56.8 µM (inactive) | > 62.2 µM (inactive) | 26.7 µM (inactive) | 31 µM (inactive) | 61.8 µM (inactive) | 29.4 µM (inactive) | 64.1 µM (inactive) | 26.2 µM (inactive)
C[N+](C)([O-])Cc1cccc(NC(=O)c2ccc(C(=O)Nc3cccc(C[N+](C)(C)[O-])c3)cc2)c1 | > 100 µM (inactive) | > 100 µM (inactive) | > 100 µM (inactive) | > 100 µM (inactive) | > 100 µM (inactive) | > 100 µM (inactive) | > 100 µM (inactive) | > 100 µM (inactive) | > 100 µM (inactive) | > 100 µM (inactive) | > 100 µM (inactive) | > 100 µM (inactive) | > 100 µM (inactive) | > 100 µM (inactive) | > 100 µM (inactive) | > 100 µM (inactive) | > 100 µM (inactive) | > 100 µM (inactive) | > 100 µM (inactive) | > 100 µM (inactive)
CCCC(=O)Nc1cc(/C=C/C(=O)N2C[C@@H]3C[C@]34C2=CC(=O)c2[nH]cc(C)c24)n(C)c1 | 0.0689 µM (active) | 0.0321 µM (active) | 0.644 µM (active) | 0.372 µM (active) | 0.329 µM (active) | 0.653 µM (active) | 0.0733 µM (active) | 0.0596 µM (active) | 0.0746 µM (active) | 0.0432 µM (active) | 0.429 µM (active) | 0.256 µM (active) | 0.259 µM (active) | 0.453 µM (active) | 0.261 µM (active) | 0.47 µM (active) | 0.0867 µM (active) | 0.0702 µM (active) | 0.098 µM (active) | 0.473 µM (active)
